The text below walks through data of patent publication US8455532B2, “Pyrazolyl acrylonitrile compounds and uses thereof” (Shenyang Research Institute of Chemical Industry Co., Ltd., priority 2009, dated 2013).

For data set [1], the system named is adult spider mites (Tetranychus cinnabarinus). The experiment in a line: Test against adult spider mite, spray on bean leaves, mortality after 72 h. Format: in vivo. The following applies: for mortality at 10 ppm / mortality at 1.25 ppm / mortality at 2.5 ppm / mortality at 5 ppm / mortality at 0.63 ppm: Tetranychus cinnabarinus, read-out: Acaricidal activity against adult spider mites (mortality, %). As to the method:
(§1) According to the solubility of test compounds, the compounds are dissolved in acetone or dimethyl sulfoxide, and then diluted with 0.1% aqueous solution of Tween 80 to form 50 ml test liquid, the content of acetone or dimethyl sulfoxide in the total solution is not more than 10%.
The adult spider mites (Tetranychus cinnabarinus) were put into two true leaves of bean plants. After the number of mites were investigated, the solution of certain concentrations of test compounds was sprayed using a sprinkler and repeated three times. Then the leaves were maintained in standard observation room. After 72 h the survival mites in each leaf were observed, and mortality of the mites was determined.
According to above method, the representative compounds of this invention, compound KC, (compound 30 in JP2003201280A, E configuration), KC2 (compound 31 in JP2003201280A, Z configuration) and KC3 (compound 24 in CN101367784A) were chosen to parallel activity test against adult spider mites.

Another data set concerns spider mite. The following applies: 400 ppm, in CN101367784A; cited from earlier work.
For data set [2], the system named is deutonymph of spider mite (Tetranychus cinnabarinus). Description: Test against deutonymph of spider mite, spray, mortality after 72 h. The note with it: read-out: Acaricidal activity against deutonymph of spider mites (mortality, %). In kind it is in vivo. Here is the method: as §1
Ten healthy female adult spider mites (Tetranychus cinnabarinus) were put into two true leaves of bean plants. The adult spider mites were removed after 24 h and the eggs were continued incubating. After ten days, the number of deutonymph were investigated and recorded. The solution of certain concentrations of test compounds was sprayed using a sprinkler and repeated three times. Then the deutonymph of spider mites were maintained in standard observation room. After 72 h, the survival mites in each leaf were observed, and mortality of the mites was determined.
According to above method, high acaricidal compound 5.1, 90.1 in present invention, and known high acaricidal compound KC1 were chosen to parallel activity test against deutonymph of spider mite.

The test system of data set [3] is egg of spider mite (Tetranychus cinnabarinus). The experiment in a line: Test against egg of spider mite, spray, incubation inhibition. The note with it: read-out: Acaricidal activity against eggs of spider mites (incubation inhibition rate, %). Format: in vivo. As to the method: as §1
Two true leaves of bean plants were taken and one true leaf was removed. Then ten healthy female adult spider mites were put into the true leaf. The adult spider mites were removed after 24 h and the eggs were investigated. The solution of certain concentrations of test compounds was sprayed using a sprinkler and repeated three times. The untreated eggs were all incubated after 5 days. The unincubation of treated eggs in leaf were observed, and incubation inhibition rate of the eggs were determined.
According to the above method, high acaricidal compound 5.1, 90.1 in present invention, and known high acaricidal compound KC1 were chosen to parallel activity test against eggs of spider mites.

In another data set the test system is spider mites. The experiment in a line: Test of systemic activity against spider mite through root absorbtion. The note with it: root dip 24 h, 72 h after infestation. In kind it is in vivo. Here is the method: The test compounds are dissolved in acetone, and then diluted with 0.1% aqueous solution of Tween 80 to form test solution in different concentration and every treatment was repeated three times. Water is blank control. The 10 mL test compound solution was added into the tube. Two true leaves bean plants were taken and the soil in the root was removed. The bean plant was dipped into the test solution in different concentration. After absorbing 24 h, 30 to 50 spider mites were put onto the true leaves. Then the bean plants were maintained in observation room at 25±1° C. After 72 h, the death and survival mites in each leaf was observed, the mortality of the mites and systemic activity was determined.

For data set [4] the following is noted: in JP2003206280A; cited from earlier work.
The subject of data set [5] is peach aphid (Myzus peisicae Sulzer). The experiment in a line: Test against peach aphid, spray on cabbage leaves, mortality after 72 h. Format: in vivo. As to the method: as §1
The cabbage leaves with peach aphids were taken and after the number of peach aphids were investigated, the solution of certain concentrations of test compounds was sprayed using a sprinkler and repeated three times. Then the leaves were maintained in standard observation room. After 72 h, the survival peach aphids were observed, and mortality of the peach aphids was determined.

Read-outs that look alike come from different tables or passages of the source.

As to `CCn1nc(C)c(Cl)c1C(OC(=O)C(C)(C)C)=C(C#N)c1ccc(C(C)(C)C)cc1` [Compound 90.2], the “Acaricidal activity against adult spider mites (mortality, %)” value (shortened to “Acaricidal activity … (mortality, %)”) in data set [1] (0.63 ppm, spray) came to 28%; in data set [1] (1.25 ppm, spray), 100%; in data set [1] (2.5 ppm, spray), 100%; in data set [1] (5 ppm, spray), 100%; in data set [1] (10 ppm, spray), 100%.

Turning to `CCOC(=O)OC(=C(C#N)c1ccc(C(C)(C)C)cc1)c1cc(C)nn1CC` [Compound 17.1], the melting point (in general, the temperature of the solid-liquid transition) lay within 96 to 97 °C.

As for `CCc1nn(C)c(/C(OC(C)=O)=C(\C#N)c2ccc(C(C)(C)C)cc2)c1Cl` [KC3, reference compound], the “mortality against spider mite” value in the data set on spider mite was “more than 80%”. For the same molecule, the mortality (usually the percentage killed) at 10 ppm in data set [1] amounted to 5%.

Consider `CCOC(=O)OC(=C(C#N)c1ccc(C(C)(C)C)cc1)c1c(Cl)c(C)nn1CC` [Compound 101.1], for which the mortality at 1.25 ppm in data set [1] (1.25 ppm, spray) amounted to 50%. For the same molecule, the mortality at 2.5 ppm in data set [1] (2.5 ppm, spray) was 91%. Further, the mortality at 5 ppm in data set [1] (5 ppm, spray) came to 100%. For the same molecule, in data set [1] (10 ppm, spray), the mortality at 10 ppm stood at 100%.

Take `CCn1nc(C)cc1C(OC(=O)C(C)(C)C)=C(C#N)c1ccc(C(C)(C)C)cc1` [Compound 5.1]: the “Acaricidal activity … (mortality, %)” value in data set [1] (1.25 ppm, spray) is on record as 98%. For the same molecule, the mortality at 0.63 ppm in data set [1] (0.63 ppm, spray) is 42%. In data set [1] (2.5 ppm, spray), the mortality at 2.5 ppm was 100%. Further, the mortality at 5 ppm in data set [1] (5 ppm, spray) turned out to be 100%. In data set [1] (10 ppm, spray), the mortality at 10 ppm came out at 100%. In addition, the mortality at 0.16 ppm in data set [2] (0.16 ppm, spray) amounted to 94%. The mortality at 0.63 ppm in data set [2] (0.63 ppm, spray) was 100%. In addition, the mortality at 2.5 ppm in data set [2] (2.5 ppm, spray) was determined as 100%. For the same molecule, in data set [3], the inhibition (usually the change of the read-out against control, counted positive when it falls) at 2.5 ppm was 66%; the inhibition at 5 ppm is 100%; the inhibition at 10 ppm was determined as 100%.

Molecule `CCn1nc(C)cc1C(O)=C(C#N)c1ccc(C(C)(C)C)cc1` [Compound 1, 3-(1-ethyl-3-methylpyrazol-5-yl)-2-(4-tertbutylphenyl)-3-hydroxy-acrylonitrile] registered a melting point of 70 to 72 °C.

Regarding `CCn1nc(C)c(C)c1C(OC(=O)C1CCC1)=C(C#N)c1ccc(C(C)(C)C)cc1` [Compound 50.1], the mortality at 0.63 ppm in data set [1] (0.63 ppm, spray) was 93%. For the same molecule, the mortality at 1.25 ppm in data set [1] (1.25 ppm, spray) came to 100%. Besides, the mortality at 2.5 ppm in data set [1] (2.5 ppm, spray) amounted to 100%. The mortality at 5 ppm in data set [1] (5 ppm, spray) was found to be 100%. Also, in data set [1] (10 ppm, spray), the mortality at 10 ppm worked out at 100%.

For `CCn1nc(C)c(C)c1C(OC(=O)C(C)(C)C)=C(C#N)c1ccc(C(C)(C)C)cc1` [Compound 42.1], the “Acaricidal activity … (mortality, %)” value in data set [1] (0.63 ppm, spray) was 20%; in data set [1] (1.25 ppm, spray) it was 93%. Also, the mortality at 2.5 ppm in data set [1] (2.5 ppm, spray) was 100%. Moreover, the mortality at 5 ppm in data set [1] (5 ppm, spray) came to 100%. Besides, the mortality at 10 ppm in data set [1] (10 ppm, spray) amounted to 100%.

In turn, `CCn1nc(C)c(C)c1C(O)=C(C#N)c1ccc(C(C)(C)C)cc1` [Compound 39, 3-(1-ethyl-3,4-dimethylpyrazol-5-yl)-2-(4-tertbutylphenyl)-3-hydroxyl-acrylonitrile] gave a melting point of 86 to 88 °C.

As to `CCn1nc(C)c(C)c1C(OC(=O)C1CC1)=C(C#N)c1ccc(C(C)(C)C)cc1` [Compound 44.2], the mortality at 0.63 ppm in data set [1] (0.63 ppm, spray) turned out to be 65%. Moreover, the mortality at 1.25 ppm in data set [1] (1.25 ppm, spray) was 97%. In addition, the mortality at 2.5 ppm in data set [1] (2.5 ppm, spray) was determined as 100%. Also, in data set [1] (5 ppm, spray), the mortality at 5 ppm was 100%. Moreover, in data set [1] (10 ppm, spray), the mortality at 10 ppm is 100%.

Consider `Cc1nn(C)c(/C(OC(=O)C(C)(C)C)=C(/C#N)c2ccc(C(C)(C)C)cc2)c1C` [KC2, reference compound], for which, in data set [1], the mortality at 1.25 ppm was determined as 0%, the mortality at 2.5 ppm came out at 55%, the mortality at 5 ppm came out at 100% and the mortality at 10 ppm is 100%.

Consider `CCn1nc(C)c(C)c1C(OC(=O)C(C)(C)C)=C(C#N)c1ccc(C(C)(C)C)cc1` [Compound 42.2], for which the “Acaricidal activity … (mortality, %)” value in data set [1] (0.63 ppm, spray) was 51%; in data set [1] (1.25 ppm, spray) it was 70%; in data set [1] (2.5 ppm, spray), 100%; in data set [1] (5 ppm, spray) it was 100%; in data set [1] (10 ppm, spray), 100%.

As for `CCn1nc(C)c(Cl)c1C(OC(=O)C(C)(C)C)=C(C#N)c1ccc(C(C)(C)C)cc1` [Compound 90.1], the “Acaricidal activity … (mortality, %)” value in data set [1] (0.63 ppm, spray) was found to be 55%. In data set [1] (1.25 ppm, spray), the mortality at 1.25 ppm was found to be 100%. Further, the mortality at 2.5 ppm was found to be 100% in data set [1] (2.5 ppm, spray) and 100% in data set [2] (2.5 ppm, spray). The mortality at 5 ppm in data set [1] (5 ppm, spray) is 100%. In addition, the mortality at 10 ppm in data set [1] (10 ppm, spray) was determined as 100%. The mortality at 0.16 ppm in data set [2] (0.16 ppm, spray) turned out to be 82%. Also, the mortality at 0.63 ppm in data set [2] (0.63 ppm, spray) is 90%. Also, the “Systemic activity against spider mites through root absorbtion (mortality, %)” value (from here on “Systemic activity … (mortality, %)”) with spider mites (50 ppm) came to 66%; with spider mites (100 ppm) it was 98%; in the data set on spider mites (200 ppm), 100%. The inhibition at 2.5 ppm in data set [3] stood at 73%. Besides, the inhibition at 5 ppm in data set [3] is 100%. For the same molecule, the inhibition at 10 ppm in data set [3] turned out to be 100%.

As for `CCOC(=O)OC(=C(C#N)c1ccc(C(C)(C)C)cc1)c1c(C)c(C)nn1CC` [Compound 54.1], the mortality at 1.25 ppm in data set [1] (1.25 ppm, spray) stood at 100%. In data set [1] (2.5 ppm, spray), the mortality at 2.5 ppm amounted to 100%. Further, the mortality at 5 ppm in data set [1] (5 ppm, spray) stood at 100%. For the same molecule, the mortality at 10 ppm in data set [1] (10 ppm, spray) was determined as 100%.

On to `Cc1nn(C)c(/C(OC(=O)C(C)(C)C)=C(\C#N)c2ccc(C(C)(C)C)cc2)c1C` [KC1, cyenopyrafen, reference compound], for which, in data set [1], the mortality at 1.25 ppm is 30%, the mortality at 2.5 ppm amounted to 85%, the mortality at 5 ppm amounted to 100% and the mortality at 10 ppm stood at 100%. Besides, in data set [2], the mortality at 0.16 ppm worked out at 20%, the mortality at 0.63 ppm is 70% and the mortality at 2.5 ppm turned out to be 82%. Also, the “Systemic activity … (mortality, %)” value in the data set with spider mites (50 ppm) stood at 0%. In addition, the “Systemic activity … (mortality, %)” value in the data set on spider mites (100 ppm) worked out at 0%. Further, in the data set on spider mites (200 ppm), the “Systemic activity … (mortality, %)” value is given as 0%. Besides, the “insecticidal and acaricidal activity” value in data set [4] is “good insecticidal and acaricidal activity”. In data set [3], the inhibition at 2.5 ppm was determined as 7%, the inhibition at 5 ppm amounted to 84% and the inhibition at 10 ppm stood at 100%.

Molecule `CCn1nc(C)c(F)c1C(O)=C(C#N)c1ccc(C(C)(C)C)cc1` [Compound 81, 3-(1-ethyl-4-fluoro-3-methylpyrazol-5-yl)-2-(4-tertbutylphenyl)-3-hydroxy-acrylonitrile] came in with a mortality at 600 ppm in data set [5] of 60%.

For the molecule `CCn1nc(C)cc1C(OC(=O)C(C)(C)C)=C(C#N)c1ccc(C(C)(C)C)cc1` [Compound 5.2], the “Acaricidal activity … (mortality, %)” value is 56% in data set [1] (0.63 ppm, spray); 65% in data set [1] (1.25 ppm, spray); 87% in data set [1] (2.5 ppm, spray); 100% in data set [1] (5 ppm, spray); 100% in data set [1] (10 ppm, spray).
